Source: patent US8629240B2, “Peptide ligands for clusterin and uses thereof” (National Research Council of Canada, priority 2009, dated 2014)

How the values were obtained:
[1] = biological target: T1, rhCLU (recombinant human clusterin) (Homo sapiens, UniProt P10909); assay: SPR biosensor analysis, rhCLU flowed over immobilized peptide; format: binding
T1 construct: made in house; host or cells: HEK-293 cells
Description: Peptides were immobilized on research-grade CM5 sensor chips by a maleimide coupling method. CM5 sensor chips (research grade) and EDC were purchased from Biosensor AB (Uppsala, Sweden). This thiol coupling generates a stable thioether bond between reactive maleimide groups on the sensor chip surface and the thiol groups of the peptides. A heterobifunctional reagent, SMCC-hydrazide (4-[N-maleimidomethyl]cyclohexane-1 carboxylhydrazide; 99.5% pure; purchased from Molecular Biosciences Inc. (Boulder, Colo.)), was used to introduce reactive maleimido groups to the sensor surface. Immobilization was performed at 25° C. at a flow rate of 5 μL/min. A continuous flow of the HBS-EP buffer (20 mM HEPES, 150 mM NaCl, 3.4 mM EDTA and 0.05% Tween™-20 at pH 7.4) was maintained over the sensor surface. The carboxylated dextran matrix on the sensor surface was activated by an injection of 50 μL of a freshly mixed solution containing 172 μL of 1.2 mM […] (EDC) in 100 mM MES buffer at pH 5.00, and 28 μL of 17.8 mM SMCC-hydrazide in 40% DMF. The ratio of the SMCC:EDC was 2.5:1. Peptide-coupled surfaces were generated by injecting peptides (30-100 μg/ml) in 100 mM MES buffer (at pH 5.0). The amount of peptide immobilized on the activated surface was controlled by altering the contact time with the peptide solution and was between approximately 400 and 500 RU, or 400-500 pg peptide/mm^2. The immobilization procedure was completed by a 50 μL injection of 50 mM cysteine in 1 M sodium chloride and 0.1M sodium acetate (pH 4) to quench excess active maleimide groups.
Protein-peptide interactions were followed using a BIAcore 3000 instrument (Biosensor AB, Uppsala, Sweden). All binding experiments were carried out at 25° C. under a continuous flow of the HBS-EP buffer (20 mM HEPES, 150 mM NaCl, 3.4 mM EDTA and 0.05% Tween-200) at pH 7.4 over the sensor surface at a flow rate of 20 μL/min. Different concentrations of rh-clusterin in the HBS-EP buffer were injected over the peptide-derivatized sensor chips. Dissociation was monitored for up to 300 s post-injection. The surfaces were fully regenerated by 15 s injection of an HBS-EP buffer solution containing 5 mM NaOH. […] Reference responses from control flow cells, containing unmodified dextran surfaces, were subtracted from peptide-containing flow cells, for each analyte injection using the BiaEvaluation software version 3.0 (Biacore AB, Uppsala, Sweden).
The resulting sensorgrams were used for kinetic rate determination through global fitting of the experimental data to a simple 1:1 Langmuir binding model. […] Affinity data (KD) from the binding studies were obtained by plotting the response in RU at the steady state, Req, versus the concentration of clusterin, C, and by fitting these curves to a one-site binding model, Req=C*xRmax/(C+KD) where Rmax is the value in RU at saturation and Req is the observed optical change in RU at each given C.

[2] = biological target: T2, extracellular domain of the Type II TGF-beta receptor (Homo sapiens, UniProt P37173); assay: SPR specificity test with Type II TGF-beta receptor extracellular domain; format: binding; settings: receptor 38 nM to 4.5 μM over immobilized peptide
T2 construct: the extracellular domain of the Type II TGF-beta receptor
T2 sequence (P37173 23-166 limits assumed): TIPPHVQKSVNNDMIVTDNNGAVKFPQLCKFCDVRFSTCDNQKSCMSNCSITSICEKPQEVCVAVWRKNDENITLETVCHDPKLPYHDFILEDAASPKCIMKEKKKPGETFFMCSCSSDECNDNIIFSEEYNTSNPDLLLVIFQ
Protocol: (§1) The specificity of the clusterin-peptide interactions was investigated using SPR biosensor analysis and proteins unrelated to clusterin. Immobilization of the peptides and other proteins on the sensor chips and the SPR experiments were conducted as described in Example 4.
FIG. 8 presents SPR biosensor sensorgrams showing the interaction of the extracellular domain of the Type II TGF-beta receptor (38 nM to 4.5 μM) with immobilized P3378 (500 RUs) (FIG. 8A) or P3375 (1200 RUs) (FIG. 8B).

4T1 tumor = assay: In vivo blocking experiment with excess unlabeled peptide; set-up: species or system mouse; settings: 5 μmoles unlabeled peptide with 25 nmoles P3378-DL680, 15 min post-injection
Protocol: To further validate the specificity of the in vivo targeting ability of the P3378-DL680 probe, a blocking experiment using an excess of unlabeled P3378 peptide was carried out. Mice received 25 nmoles of P3378-DL680 alone (n=1) or in combination with 5 μmoles unlabeled P3378 or P3378R peptide (both n=2) in 100 μL sterile saline. Animals in the control groups received 25 nmoles of P3378-DL680 with or without 5 μmoles of the unlabeled scrambled P3378R peptide, whereas the experimental animals were injected with 25 nmoles of P3378-DL680 in combination with 5 μmoles of unlabeled P3378 peptide. […] Furthermore, using the gated NIRF lifetime and the OptiView 3D reconstruction module we selected in each mouse the slice along the Z-axis that contained the highest concentration of P3378-DL680 and determined its relative concentration.

[3] = system: 4T1 tumor and organs (liver, spleen, pancreas, kidney, heart, lungs); assay: Confocal microscopy of probe distribution in 4T1 tumor and organs; format: in vivo, mouse; settings: 25 nmoles P3378-DL680, 15 min post-injection, liver, spleen, pancreas, kidney, heart, lungs
Protocol: Confocal microscopy was used to evaluate the distribution of the P3378-DL680 probe in the 4T1 tumor and various organs (liver, spleen, pancreas, kidney, heart, lungs), harvested 15 min post-injection. […] DAPI staining of the nuclei was used to visualize tissue morphology.

[4] = biological target: T3, epidermal growth factor ectodomain (EGFR-ED) (Homo sapiens, UniProt P00533); assay: SPR specificity test with EGFR ectodomain; format: binding; settings: EGFR-ED 70 nM to 5.63 μM over immobilized peptide
T3 construct: the epidermal growth factor ectodomain (EGFR-ED)
T3 sequence (P00533 25-645 limits assumed): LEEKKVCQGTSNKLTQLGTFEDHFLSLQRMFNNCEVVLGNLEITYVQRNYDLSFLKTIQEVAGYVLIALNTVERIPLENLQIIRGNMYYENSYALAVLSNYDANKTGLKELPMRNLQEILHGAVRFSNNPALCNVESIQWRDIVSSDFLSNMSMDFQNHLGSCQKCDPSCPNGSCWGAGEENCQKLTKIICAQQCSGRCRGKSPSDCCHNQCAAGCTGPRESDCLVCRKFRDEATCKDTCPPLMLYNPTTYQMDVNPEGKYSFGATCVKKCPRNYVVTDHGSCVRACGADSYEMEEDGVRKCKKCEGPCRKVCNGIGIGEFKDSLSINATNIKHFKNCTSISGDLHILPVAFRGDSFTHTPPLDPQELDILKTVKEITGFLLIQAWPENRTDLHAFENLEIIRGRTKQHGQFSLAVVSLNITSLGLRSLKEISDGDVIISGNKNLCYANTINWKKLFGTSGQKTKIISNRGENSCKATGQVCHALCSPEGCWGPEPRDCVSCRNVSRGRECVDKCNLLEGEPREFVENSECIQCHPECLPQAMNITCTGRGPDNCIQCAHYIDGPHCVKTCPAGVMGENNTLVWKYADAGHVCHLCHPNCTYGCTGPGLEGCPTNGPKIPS
Protocol: as §1

[5] = global fit, one-to-one Langmuir binding model, 25° C.

T1 sequence (P10909 23-227 limits assumed): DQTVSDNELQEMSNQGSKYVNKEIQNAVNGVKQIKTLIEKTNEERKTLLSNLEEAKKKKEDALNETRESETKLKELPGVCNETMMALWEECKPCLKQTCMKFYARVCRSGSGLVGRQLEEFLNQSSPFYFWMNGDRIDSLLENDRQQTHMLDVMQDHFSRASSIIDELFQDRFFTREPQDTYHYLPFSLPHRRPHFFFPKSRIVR
T1 sequence (P10909 228-449 limits assumed): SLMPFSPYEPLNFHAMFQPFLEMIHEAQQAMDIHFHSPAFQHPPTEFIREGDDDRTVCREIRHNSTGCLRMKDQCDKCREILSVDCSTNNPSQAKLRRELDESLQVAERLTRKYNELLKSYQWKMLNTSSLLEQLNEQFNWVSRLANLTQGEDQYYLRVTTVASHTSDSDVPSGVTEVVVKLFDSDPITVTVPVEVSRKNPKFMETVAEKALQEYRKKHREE

## CC(C)C[C@H](NC(=O)[C@@H]1CCCN1C(=O)[C@@H](N)Cc1c[nH]cn1)C(=O)N[C@@H](CO)C(=O)N[C@@H](CCCCN)C(=O)N[C@@H](Cc1c[nH]cn1)C(=O)N1CCC[C@H]1C(=O)N[C@@H](Cc1ccc(O)cc1)C(=O)N[C@@H](Cc1c[nH]c2ccccc12)C(=O)N[C@@H](CO)C(=O)N[C@@H](CCC(N)=O)C(=O)N1CCC[C@H]1C(=O)N[C@@H](CO)C(=O)NCC(=O)N[C@@H](CO)C(=O)NCC(=O)N[C@@H](CS)C(=O)O [P3378]
[1]; concluded from scrambled peptides
  sequence dependence of the interaction with clusterin: sequence dependent
[1]; [5]
  koff: 0.0052 ± 0.0002 s⁻¹
  kon: 17200 M⁻¹ s⁻¹
[1]; global fit, one-to-one Langmuir binding model, read-out: Kd (global kinetic fit)
  Kd: 300 nM
[2]
  interaction with Type II TGF-beta receptor: no significant signal was observed
4T1 tumor
  blocking of uptake of P3378-DL680 into the tumor by unlabeled peptide: successfully blocked uptake
[3]
  detection in the other organs: could not be detected
[4]
  binding to EGFR-ED: do not bind specifically
